Some test systems named below: CCRF-CEM leukemia; HL-60(TB) leukemia; K-562 leukemia; M14 melanoma; NCI-H460 lung; OVCAR-4 ovarian; SK-MEL-28 melanoma; SK-MEL-5 melanoma; SK-OV-3 ovarian; T-47D breast; UACC-62 melanoma.
Common to all, as to experiment: inhibition of tumour cell growth, NCI panel, 48 h

Molecules are shown by their SMILES.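 In this assay, cells in 96-well plates receive the compound at five concentrations for 48 hours. Endpoints are linearly interpolated between the surrounding concentrations. TGI denotes the concentration required for complete inhibition of growth.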 Some results are limits rather than exact numbers.

Take `CC(C)=CCC/C(C)=C/C=C/C(C)=C/C=C/C(C)=C/C=C/C=C(C)/C=C/C=C(C)/C=C/[C@H]1C(C(C)(C)O)CC[C@]1(C)O` (some centres not stated): the TGI with CCRF-CEM leukemia was 34 µM; in the experiment with HL-60(TB) leukemia, 48.9 µM; in the experiment on K-562 leukemia, 63.6 µM; with M14 melanoma, 91.1 µM; in the experiment on NCI-H460 lung, above 100 µM; in the experiment with OVCAR-4 ovarian it was above 100 µM. Moreover, the TGI was 41.9 µM in the experiment on SK-MEL-28 melanoma, 33.5 µM in the experiment with SK-MEL-5 melanoma, above 100 µM with SK-OV-3 ovarian and above 100 µM in the experiment with T-47D breast.

On to `O=C(N/N=C\c1cccc2c([N+](=O)[O-])cccc12)Nc1ccccc1`, for which the TGI in the experiment with CCRF-CEM leukemia was found to be 33.9 µM; in the experiment with HL-60(TB) leukemia it was 72.6 µM; in the experiment on K-562 leukemia it was 43.5 µM; in the experiment on M14 melanoma, 29.5 µM; with NCI-H460 lung, 30.9 µM; with OVCAR-4 ovarian it was 29.2 µM. The TGI stood at 31.9 µM in the experiment with SK-MEL-28 melanoma, 33.5 µM in the experiment with SK-MEL-5 melanoma, 20.4 µM in the experiment with T-47D breast and 24.4 µM in the experiment on UACC-62 melanoma.

In the case of `C(=Nc1ccc(-c2nc3ccccc3[nH]2)cc1)c1cccs1`, the TGI with CCRF-CEM leukemia, in the experiment on HL-60(TB) leukemia, in the experiment on K-562 leukemia, in the experiment on M14 melanoma, in the experiment with NCI-H460 lung and in the experiment on OVCAR-4 ovarian was above 100 µM in each case. Moreover, the TGI in the experiment on SK-MEL-28 melanoma, in the experiment on SK-MEL-5 melanoma, in the experiment with SK-OV-3 ovarian and in the experiment with T-47D breast was above 100 µM in each case.

As to `CC(C)(C)OC(=O)NC(Cc1ccc(OCc2ccccc2)cn1)C(=O)N1CCCCC1` (configuration not stated), the TGI with CCRF-CEM leukemia is above 100 µM; in the experiment with HL-60(TB) leukemia, 82.1 µM; with K-562 leukemia, above 100 µM; in the experiment on M14 melanoma it was above 100 µM; in the experiment with NCI-H460 lung it was above 100 µM; with SK-MEL-28 melanoma it was above 100 µM. The TGI was 31 µM with SK-MEL-5 melanoma, above 100 µM in the experiment on SK-OV-3 ovarian, 33.9 µM in the experiment on T-47D breast and above 100 µM in the experiment on UACC-62 melanoma.

As to `O=C1C=C(C2=CC(=O)C(=O)c3ccccc32)c2ccccc2C1=O`, the TGI in the experiment with CCRF-CEM leukemia, in the experiment on HL-60(TB) leukemia, in the experiment on K-562 leukemia, in the experiment on M14 melanoma, in the experiment on OVCAR-4 ovarian and in the experiment on SK-MEL-28 melanoma was above 100 µM each time. Also, the TGI in the experiment with SK-MEL-5 melanoma was 8.17 µM; in the experiment with SK-OV-3 ovarian, above 100 µM; in the experiment on T-47D breast, 56.1 µM; with UACC-62 melanoma, above 100 µM.

For the compound `O=C1/C(=C/c2ccc([N+](=O)[O-])cc2)C(=O)N(c2ccccc2)C1c1ccccc1` (configuration not stated), the TGI in the experiment with CCRF-CEM leukemia, with HL-60(TB) leukemia, in the experiment with M14 melanoma, with NCI-H460 lung, in the experiment with OVCAR-4 ovarian and in the experiment on SK-MEL-28 melanoma was above 10 µM each time. For the same compound, the TGI with SK-MEL-5 melanoma, in the experiment with SK-OV-3 ovarian, in the experiment on T-47D breast and in the experiment with UACC-62 melanoma was above 10 µM throughout.

Take `C[C@]12CCC(=O)O[C@H]1CCCCO2`: the TGI in the experiment with CCRF-CEM leukemia, with HL-60(TB) leukemia, with K-562 leukemia, in the experiment with M14 melanoma, with NCI-H460 lung and in the experiment on SK-MEL-28 melanoma was above 100 µM throughout. Besides, the TGI in the experiment with SK-MEL-5 melanoma, in the experiment on SK-OV-3 ovarian, with T-47D breast and with UACC-62 melanoma was above 100 µM each time.

In the case of `O=C1/C(=N/O)Cc2c(Br)ccc(Br)c21`, the TGI is above 100 µM with CCRF-CEM leukemia; 76.3 µM with HL-60(TB) leukemia; 84.5 µM with K-562 leukemia; above 100 µM in the experiment on M14 melanoma; above 100 µM with NCI-H460 lung; above 100 µM with OVCAR-4 ovarian. For the same compound, the TGI in the experiment on SK-MEL-28 melanoma, in the experiment on SK-MEL-5 melanoma, in the experiment on SK-OV-3 ovarian and with T-47D breast was above 100 µM each time.

As to `CCOc1cn(C2CC(O)C(CO)O2)c(=O)[nH]c1=O` (configuration not stated), the TGI in the experiment with CCRF-CEM leukemia, in the experiment on HL-60(TB) leukemia, in the experiment on M14 melanoma, in the experiment with NCI-H460 lung, with OVCAR-4 ovarian and in the experiment on SK-MEL-28 melanoma was above 100 µM throughout. In addition, the TGI in the experiment on SK-MEL-5 melanoma, with SK-OV-3 ovarian, in the experiment with T-47D breast and in the experiment with UACC-62 melanoma was above 100 µM in each case.

Take `O=C(O)c1ccc([N+](=O)[O-])c2cc3cnccc3nc12`: the TGI in the experiment with CCRF-CEM leukemia was 9.03 µM; in the experiment on HL-60(TB) leukemia, above 100 µM; in the experiment on K-562 leukemia it was 36.5 µM; in the experiment on M14 melanoma it was 37.2 µM; with NCI-H460 lung, above 100 µM; in the experiment with SK-MEL-28 melanoma, 34.8 µM. For the same compound, the TGI in the experiment on SK-MEL-5 melanoma was 38.4 µM; in the experiment with SK-OV-3 ovarian it was above 100 µM; in the experiment with T-47D breast, 58.6 µM; in the experiment on UACC-62 melanoma it was 24.8 µM.

`O=C(NNC(=S)Nc1cccc(Cl)c1)c1cc(-c2ccccc2)nc2ccccc12`: the TGI was 32.2 µM with CCRF-CEM leukemia; above 100 µM in the experiment on K-562 leukemia; 33.7 µM with M14 melanoma; 39.6 µM in the experiment on NCI-H460 lung; 28.7 µM in the experiment with OVCAR-4 ovarian; 26.5 µM in the experiment on SK-MEL-28 melanoma. Further, the TGI in the experiment on SK-MEL-5 melanoma worked out at 33.2 µM; in the experiment on SK-OV-3 ovarian, 34.5 µM; in the experiment on T-47D breast, 36.4 µM; in the experiment on UACC-62 melanoma, 26.7 µM.

Turning to `Nc1nc(N)c2ncn(-c3ccc(Cl)cc3)c2n1`, the TGI is 66.1 µM in the experiment on CCRF-CEM leukemia; above 100 µM with HL-60(TB) leukemia; above 100 µM in the experiment with M14 melanoma; above 100 µM in the experiment with OVCAR-4 ovarian; above 100 µM in the experiment on SK-MEL-28 melanoma; above 100 µM with SK-MEL-5 melanoma. Besides, the TGI in the experiment with SK-OV-3 ovarian is 53.3 µM; with T-47D breast, above 100 µM; with UACC-62 melanoma, above 100 µM.

With `O=Cc1ccc2c(c1)CC1(Cc3ccccc3C1)C2`, the TGI stood at 25.5 µM with CCRF-CEM leukemia; 39.5 µM in the experiment with HL-60(TB) leukemia; 44.9 µM in the experiment on K-562 leukemia; 26.8 µM with M14 melanoma; 48.7 µM with OVCAR-4 ovarian; 29.4 µM in the experiment with SK-MEL-5 melanoma. Besides, the values for the TGI in the experiment with SK-OV-3 ovarian, in the experiment with T-47D breast and in the experiment on UACC-62 melanoma were above 100 µM, above 100 µM and 41.4 µM, respectively.

With `CC1(C)NC2C(=O)c3c([nH]c4ccccc34)[C@]3(C)CCC1CC23` (some centres not stated), the TGI with CCRF-CEM leukemia, in the experiment with HL-60(TB) leukemia, with K-562 leukemia, in the experiment with NCI-H460 lung, with OVCAR-4 ovarian and with SK-MEL-28 melanoma was above 100 µM in each case. For the same compound, the results for the TGI with SK-MEL-5 melanoma, with T-47D breast and in the experiment with UACC-62 melanoma were above 100 µM, 90.8 µM and above 100 µM, respectively.
